{"source": "ChEMBL document CHEMBL4402537", "about": "“Recent development of membrane-active molecules as antibacterial agents” (2019)", "format_in_all_cases": "functional", "key": {"[1]": {"test_system": "Escherichia coli", "test": "Antibacterial activity against Escherichia coli after 10 hrs by broth microdilution assay"}, "[2]": {"test_system": "Staphylococcus aureus", "test": "Antibacterial activity against Staphylococcus aureus after 10 hrs by broth microdilution assay"}, "[3]": {"test_system": "Staphylococcus aureus", "test": "Antibacterial activity against methicillin resistant Staphylococcus aureus"}, "[4]": {"test_system": "Staphylococcus aureus", "test": "Antibacterial activity against methicillin resistant Staphylococcus aureus clinical isolate"}, "[5]": {"test_system": "Acinetobacter baumannii", "test": "Antibacterial activity against Acinetobacter baumannii"}, "[6]": {"test_system": "Klebsiella pneumoniae", "test": "Antibacterial activity against Klebsiella pneumoniae"}, "[7]": {"test_system": "Staphylococcus aureus", "test": "Antibacterial activity against Staphylococcus aureus ATCC 29213 after 18 to 20 hrs by CLSI based direct colony suspension method"}, "[8]": {"test_system": "Staphylococcus aureus", "test": "Antibacterial activity against methicillin resistant Staphylococcus aureus DB57964/04 after 18 to 20 hrs by CLSI based direct colony suspension method"}, "[9]": {"test_system": "Staphylococcus aureus", "test": "Antibacterial activity against methicillin resistant Staphylococcus aureus DM21455 after 18 to 20 hrs by CLSI based direct colony suspension method"}, "[10]": {"test_system": "Bacillus cereus", "test": "Antibacterial activity against Bacillus cereus ATCC 11778 after 18 to 20 hrs by CLSI based direct colony suspension method"}, "[11]": {"test_system": "Staphylococcus aureus", "test": "Antibacterial activity against methicillin resistant Staphylococcus aureus DM09808R after 18 to 20 hrs by CLSI based direct colony suspension method"}, "[12]": {"test_system": "Enterococcus faecalis", "test": "Antibacterial activity against Enterococcus faecalis ATCC 29212 after 18 to 20 hrs by CLSI based direct colony suspension method"}}, "data": [{"molecule": "CCCCCCCCCCCCNC(=O)C[N+](C)(C)C", "values": [{"measurement": "MIC", "setting": "[1]", "value": 35, "unit": "µM"}, {"measurement": "MIC", "setting": "[2]", "value": 43, "unit": "µM"}]}, {"molecule": "CCCCCCCCCCCCNC(=O)C[N+](C)(C)CCCCCC[N+](C)(C)CC(=O)NCCCCCCCCCCCC", "values": [{"measurement": "MIC", "setting": "[1]", "value": 13, "unit": "µM"}, {"measurement": "MIC", "setting": "[2]", "value": 10, "unit": "µM"}]}, {"molecule": "CCCCCCCCCCCCCC(=O)N(CCCNC(=O)[C@H](N)CCCCN)CCCNC(=O)[C@H](N)CCCCN.O=C(O)C(F)(F)F.O=C(O)C(F)(F)F.O=C(O)C(F)(F)F.O=C(O)C(F)(F)F", "values": [{"measurement": "MIC", "setting": "[3]", "value": "3.1 to 6.3", "unit": "µg/mL"}]}, {"molecule": "CCCCCCN(Cc1ccc(-c2ccc(CN(CCCCCC)C(=O)[C@@H](N)CCCCN)cc2)cc1)C(=O)[C@@H](N)CCCCN.O=C(O)C(F)(F)F.O=C(O)C(F)(F)F.O=C(O)C(F)(F)F.O=C(O)C(F)(F)F", "values": [{"measurement": "MIC", "setting": "[4]", "value": 6.2, "unit": "µg/mL"}, {"measurement": "MIC", "setting": "[3]", "value": 3.1, "unit": "µg/mL"}]}, {"molecule": "CCCCCCCC(=O)N(CCCNC(=O)[C@@H](CCCCN)NC(=O)[C@H](N)CCCCN)CCCNC(=O)[C@@H](CCCCN)NC(=O)[C@H](N)CCCCN.O=C(O)C(F)(F)F.O=C(O)C(F)(F)F.O=C(O)C(F)(F)F.O=C(O)C(F)(F)F.O=C(O)C(F)(F)F.O=C(O)C(F)(F)F", "values": [{"measurement": "MIC", "setting": "[5]", "value": "6.3 to 12.5", "unit": "µg/mL"}, {"measurement": "MIC", "setting": "[6]", "value": "6.3 to 12.5", "unit": "µg/mL"}, {"measurement": "MIC", "setting": "[3]", "value": "6.3 to 12.5", "unit": "µg/mL"}]}, {"molecule": "COc1c(O)cc2oc3cc(O)c(CC=C(C)C)c(O)c3c(=O)c2c1CC=C(C)C", "note": "[MANGOSTIN]", "values": [{"measurement": "MIC", "setting": "[7]", "value": "0.78 to 1.56", "unit": "µg/mL"}, {"measurement": "MIC", "setting": "[8]", "value": "0.78 to 1.56", "unit": "µg/mL"}, {"measurement": "MIC", "setting": "[9]", "value": "0.78 to 1.56", "unit": "µg/mL"}, {"measurement": "MIC", "setting": "[10]", "value": "0.78 to 1.56", "unit": "µg/mL"}, {"measurement": "MIC", "setting": "[11]", "value": "0.78 to 1.56", "unit": "µg/mL"}, {"measurement": "MIC", "setting": "[12]", "value": "0.78 to 1.56", "unit": "µg/mL"}]}]}
